Laboratory results: US20230255966A1, “A COMBINATION OF A CBP/P300 BROMODOMAIN INHIBITOR AND AN EGFR INHIBITOR FOR USE IN TREATING EGFR-MUTANT NSCLC” (TOLREMO THERAPEUTICS AG, priority 2020, published 2023)

Assays:
BRD2(2) = target: T1, BRD2(2) (Homo sapiens, UniProt P25440); experiment: BROMOscan BromoKdMAX; assay type: binding
T1 construct: T7 phage strains displaying bromodomains were grown in parallel; purchased DiscoverX; host or cells: T7 phage in E. coli host derived from BL21
Method: (§1) A BromoKdMAX was performed at DiscoverX.
(§2) The assay principle is the following: BROMOscan™ is a novel industry leading platform for identifying small molecule bromodomain inhibitors. Based on proven KINOMEscan™ technology, BRO-MOscan™ employs a proprietary ligand binding site-directed competition assay to quantitatively measure interactions between test compounds and bromodomains.
(§3) The assay was conducted as follows: For the Bromodomain assays, T7 phage strains displaying bromodomains were grown in parallel in 24-well blocks in an E. coli host derived from the BL21 strain. E. coli were grown to log-phase and infected with T7 phage from a frozen stock (multiplicity of infection=0.4) and incubated with shaking at 32° C. until lysis (90-150 minutes). The lysates were centrifuged (5,000×g) and filtered (0.2 μm) to remove cell debris. […] The liganded beads were blocked with excess biotin and washed with blocking buffer (SeaBlock (Pierce), 1% BSA, 0.05% Tween 20, 1 mM DTT) to remove unbound ligand and to reduce non-specific phage binding. […] Test compounds were prepared as 1000× stocks in 100% DMSO. Kds were determined using an 11-point 3-fold compound dilution series with one DMSO control point. […] The compounds were then diluted directly into the assays such that the final concentration of DMSO was 0.09%. All reactions performed in polypropylene 384-well plates. Each was a final volume of 0.02 ml. […] The bromodomain concentration in the eluates was measured by qPCR.

BRD4(1) = target: T2, BRD4(1) (Homo sapiens, UniProt O60885); experiment: BROMOscan BromoKdMAX; assay type: binding
T2 construct: T7 phage strains displaying bromodomains were grown in parallel; purchased DiscoverX; host or cells: T7 phage in E. coli host derived from BL21
Method: as §1, §2, §3

[1] = target: T3, BRD4(full-length, short-iso.) (Homo sapiens, UniProt O60885); experiment: BROMOscan BromoKdMAX; assay type: binding
T3 construct: BRD4 (full-length, short-iso.); purchased DiscoverX; host or cells: T7 phage in E. coli host derived from BL21 (general protocol)
Method: as §1, §2, §3

BRD8(2) = target: T4, BRD8(2) (Homo sapiens, UniProt Q9H0E9); experiment: BROMOscan BromoKdMAX; assay type: binding
T4 construct: T7 phage strains displaying bromodomains were grown in parallel; purchased DiscoverX; host or cells: T7 phage in E. coli host derived from BL21
Method: as §1, §2, §3

BRDT(1, 2) = target: T5, BRDT(1, 2) (Homo sapiens, UniProt Q58F21); experiment: BROMOscan BromoKdMAX; assay type: binding
T5 construct: T7 phage strains displaying bromodomains were grown in parallel; purchased DiscoverX; host or cells: T7 phage in E. coli host derived from BL21
Method: as §1, §2, §3

CECR2 = target: T6, CECR2 (Homo sapiens, UniProt Q9BXF3); experiment: BROMOscan BromoKdMAX; assay type: binding
T6 construct: T7 phage strains displaying bromodomains were grown in parallel; purchased DiscoverX; host or cells: T7 phage in E. coli host derived from BL21
Method: as §1, §2, §3

TRIM24(Bromo.) = target: T7, TRIM24(Bromo.) (Homo sapiens, UniProt O15164); experiment: BROMOscan BromoKdMAX; assay type: binding
T7 construct: TRIM24(Bromo.); purchased DiscoverX (BROMOscan / BromoKdMAX service); host or cells: T7 phage in E. coli host derived from BL21
Method: as §1, §2, §3

TRIM24(PHD, Bromo.) = target: T8, TRIM24(PHD, Bromo.) (Homo sapiens, UniProt O15164); experiment: BROMOscan BromoKdMAX; assay type: binding
T8 construct: TRIM24(PHD, Bromo.); purchased DiscoverX (BROMOscan / BromoKdMAX service); host or cells: T7 phage in E. coli host derived from BL21
Method: as §1, §2, §3

ATAD2A = target: T9, ATAD2A (Homo sapiens, UniProt Q6PL18); experiment: BROMOscan BromoKdMAX; assay type: binding
T9 construct: T7 phage strains displaying bromodomains were grown in parallel; purchased DiscoverX; host or cells: T7 phage in E. coli host derived from BL21
Method: as §1
as §2, with “bromodomains. This robust and reliable assay panel is suitable for high throughput screening and delivers quantitative ligand binding data to facilitate the identification and optimization of potent and selective small molecule bromodomain inhibitors.” for “bromodomains.”
as §3

ATAD2B = target: T10, ATAD2B (Homo sapiens, UniProt Q9ULI0); experiment: BROMOscan BromoKdMAX; assay type: binding
T10 construct: T7 phage strains displaying bromodomains were grown in parallel; purchased DiscoverX; host or cells: T7 phage in E. coli host derived from BL21
Method: as §1
as §2, with “bromodomains. This robust and reliable assay panel is suitable for high throughput screening and delivers quantitative ligand binding data to facilitate the identification and optimization of potent and selective small molecule bromodomain inhibitors.” for “bromodomains.”
as §3

BAZ2A = target: T11, BAZ2A (Homo sapiens, UniProt Q9UIF9); experiment: BROMOscan BromoKdMAX; assay type: binding
T11 construct: T7 phage strains displaying bromodomains were grown in parallel; purchased DiscoverX; host or cells: T7 phage in E. coli host derived from BL21
Method: as §1
as §2, with “bromodomains. This robust and reliable assay panel is suitable for high throughput screening and delivers quantitative ligand binding data to facilitate the identification and optimization of potent and selective small molecule bromodomain inhibitors.” for “bromodomains.”
as §3

BAZ2B = target: T12, BAZ2B (Homo sapiens, UniProt Q9UIF8); experiment: BROMOscan BromoKdMAX; assay type: binding
T12 construct: T7 phage strains displaying bromodomains were grown in parallel; purchased DiscoverX; host or cells: T7 phage in E. coli host derived from BL21
Method: as §1
as §2, with “bromodomains. This robust and reliable assay panel is suitable for high throughput screening and delivers quantitative ligand binding data to facilitate the identification and optimization of potent and selective small molecule bromodomain inhibitors.” for “bromodomains.”
as §3

BRD1 = target: T13, BRD1 (Homo sapiens, UniProt O95696); experiment: BROMOscan BromoKdMAX; assay type: binding
T13 construct: T7 phage strains displaying bromodomains were grown in parallel; purchased DiscoverX; host or cells: T7 phage in E. coli host derived from BL21
Method: as §1
as §2, with “bromodomains. This robust and reliable assay panel is suitable for high throughput screening and delivers quantitative ligand binding data to facilitate the identification and optimization of potent and selective small molecule bromodomain inhibitors.” for “bromodomains.”
as §3

BRPF3 = target: T14, BRPF3 (Homo sapiens, UniProt Q9ULD4); experiment: BROMOscan BromoKdMAX; assay type: binding
T14 construct: T7 phage strains displaying bromodomains were grown in parallel; purchased DiscoverX; host or cells: T7 phage in E. coli host derived from BL21
Method: as §1
as §2, with “bromodomains. This robust and reliable assay panel is suitable for high throughput screening and delivers quantitative ligand binding data to facilitate the identification and optimization of potent and selective small molecule bromodomain inhibitors.” for “bromodomains.”
as §3

FALZ = target: T15, FALZ (Homo sapiens, UniProt Q12830); experiment: BROMOscan BromoKdMAX; assay type: binding
T15 construct: T7 phage strains displaying bromodomains were grown in parallel; purchased DiscoverX (BROMOscan / BromoKdMAX service); host or cells: T7 phage in E. coli host derived from BL21
Method: as §1
as §2, with “bromodomains. This robust and reliable assay panel is suitable for high throughput screening and delivers quantitative ligand binding data to facilitate the identification and optimization of potent and selective small molecule bromodomain inhibitors.” for “bromodomains.”
as §3

GCN5L2 = target: T16, GCN5L2 (Homo sapiens, UniProt Q92830); experiment: BROMOscan BromoKdMAX; assay type: binding
T16 construct: T7 phage strains displaying bromodomains were grown in parallel; purchased DiscoverX (BROMOscan / BromoKdMAX service); host or cells: T7 phage in E. coli host derived from BL21
Method: as §1
as §2, with “bromodomains. This robust and reliable assay panel is suitable for high throughput screening and delivers quantitative ligand binding data to facilitate the identification and optimization of potent and selective small molecule bromodomain inhibitors.” for “bromodomains.”
as §3

PBRM1(2) = target: T17, PBRM1(2) (Homo sapiens, UniProt Q86U86); experiment: BROMOscan BromoKdMAX; assay type: binding
T17 construct: T7 phage strains displaying bromodomains were grown in parallel; purchased DiscoverX (BROMOscan / BromoKdMAX service); host or cells: T7 phage in E. coli host derived from BL21
Method: as §1
as §2, with “bromodomains. This robust and reliable assay panel is suitable for high throughput screening and delivers quantitative ligand binding data to facilitate the identification and optimization of potent and selective small molecule bromodomain inhibitors.” for “bromodomains.”
as §3

PBRM1(5) = target: T18, PBRM1(5) (Homo sapiens, UniProt Q86U86); experiment: BROMOscan BromoKdMAX; assay type: binding
T18 construct: T7 phage strains displaying bromodomains were grown in parallel; purchased DiscoverX (BROMOscan / BromoKdMAX service); host or cells: T7 phage in E. coli host derived from BL21
Method: as §1
as §2, with “bromodomains. This robust and reliable assay panel is suitable for high throughput screening and delivers quantitative ligand binding data to facilitate the identification and optimization of potent and selective small molecule bromodomain inhibitors.” for “bromodomains.”
as §3

SMARCA2 = target: T19, SMARCA2 (Homo sapiens, UniProt P51531); experiment: BROMOscan BromoKdMAX; assay type: binding
T19 construct: T7 phage strains displaying bromodomains were grown in parallel; purchased DiscoverX (BROMOscan / BromoKdMAX service); host or cells: T7 phage in E. coli host derived from BL21
Method: as §1
as §2, with “bromodomains. This robust and reliable assay panel is suitable for high throughput screening and delivers quantitative ligand binding data to facilitate the identification and optimization of potent and selective small molecule bromodomain inhibitors.” for “bromodomains.”
as §3

SMARCA4 = target: T20, SMARCA4 (Homo sapiens, UniProt P51532); experiment: BROMOscan BromoKdMAX; assay type: binding
T20 construct: T7 phage strains displaying bromodomains were grown in parallel; purchased DiscoverX (BROMOscan / BromoKdMAX service); host or cells: T7 phage in E. coli host derived from BL21
Method: as §1
as §2, with “bromodomains. This robust and reliable assay panel is suitable for high throughput screening and delivers quantitative ligand binding data to facilitate the identification and optimization of potent and selective small molecule bromodomain inhibitors.” for “bromodomains.”
as §3

TRIM33(PHD, Bromo.) = target: T21, TRIM33(PHD, Bromo.) (Homo sapiens, UniProt Q9UPN9); experiment: BROMOscan BromoKdMAX; assay type: binding
T21 construct: TRIM33(PHD, Bromo.)
Method: as §1
as §2, with “bromodomains. This robust and reliable assay panel is suitable for high throughput screening and delivers quantitative ligand binding data to facilitate the identification and optimization of potent and selective small molecule bromodomain inhibitors.” for “bromodomains.”
as §3

HCC827 cells = experiment: Cell counting by nuclear fluorescent staining (Hoechst33342); assay type: cell-based
Method: Several plates were seeded, as for each time point of cell counting one plate was fixed and stained for analysis. […] Cell cultivation was continued until time of fixation and analysis for each plate. For extended time-points, medium and drugs were replenished twice weekly.
At the given time plates were washed 3 times with PBS and cells fixed with 80 μl 4% PFA for 10 min, RT. After 3 wash steps with PBS cells were stained with 10 μg/ml Hoechst33342 (Thermo Scientific H12492) in 100 μl PBS for 2 h, RT, dark. After 3× PBS washing-steps, Hoechst33342 signals were acquired on in an automated imaging mode using a Zeiss Apotome with motorized X/Y stage and a 5× objective. Image analysis and determination of Hoechst33342 spots (nuclei) was done using ImageJ. Number of nuclei was plotted as function of time using GraphPad Prism.

T13 sequence (O95696 562-666 limits assumed): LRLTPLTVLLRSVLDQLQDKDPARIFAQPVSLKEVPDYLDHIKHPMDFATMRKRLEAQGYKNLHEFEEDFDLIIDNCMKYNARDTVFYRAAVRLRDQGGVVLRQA
T18 sequence (Q86U86 653-763 limits assumed): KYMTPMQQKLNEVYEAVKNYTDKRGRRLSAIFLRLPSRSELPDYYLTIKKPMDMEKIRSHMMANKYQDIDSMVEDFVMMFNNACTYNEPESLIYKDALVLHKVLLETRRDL
T20 sequence (P51532 1453-1564 limits assumed): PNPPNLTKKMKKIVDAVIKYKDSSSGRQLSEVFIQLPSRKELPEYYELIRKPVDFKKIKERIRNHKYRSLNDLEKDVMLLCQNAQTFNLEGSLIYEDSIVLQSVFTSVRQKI
T8 sequence (O15164 824-1006 limits assumed): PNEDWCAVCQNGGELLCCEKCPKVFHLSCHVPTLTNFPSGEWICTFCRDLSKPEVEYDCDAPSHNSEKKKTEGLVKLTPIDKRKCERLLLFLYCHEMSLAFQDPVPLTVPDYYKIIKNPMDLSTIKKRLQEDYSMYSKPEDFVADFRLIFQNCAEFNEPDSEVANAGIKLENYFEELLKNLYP
T7 sequence (O15164 899-1004 limits assumed): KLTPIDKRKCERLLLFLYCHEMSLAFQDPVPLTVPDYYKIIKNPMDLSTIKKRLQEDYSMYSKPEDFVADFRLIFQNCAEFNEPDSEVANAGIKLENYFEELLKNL
T19 sequence (P51531 1378-1506 limits assumed): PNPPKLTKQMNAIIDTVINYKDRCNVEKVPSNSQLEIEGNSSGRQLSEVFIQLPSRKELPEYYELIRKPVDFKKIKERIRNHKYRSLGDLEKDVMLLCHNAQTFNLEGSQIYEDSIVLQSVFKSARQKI
T17 sequence (Q86U86 177-287 limits assumed): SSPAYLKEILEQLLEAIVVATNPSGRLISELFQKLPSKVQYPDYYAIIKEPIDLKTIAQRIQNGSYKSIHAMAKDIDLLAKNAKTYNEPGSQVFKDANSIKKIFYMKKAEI
T4 sequence (Q9H0E9 1099-1207 limits assumed): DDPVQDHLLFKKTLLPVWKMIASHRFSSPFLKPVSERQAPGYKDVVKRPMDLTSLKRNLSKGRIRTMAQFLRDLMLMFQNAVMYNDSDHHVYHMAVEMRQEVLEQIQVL
T12 sequence (Q9UIF8 2060-2164 limits assumed): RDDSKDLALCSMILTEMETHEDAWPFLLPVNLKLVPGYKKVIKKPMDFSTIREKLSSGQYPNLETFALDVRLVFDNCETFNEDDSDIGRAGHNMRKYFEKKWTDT
T6 sequence (Q9BXF3 434-538 limits assumed): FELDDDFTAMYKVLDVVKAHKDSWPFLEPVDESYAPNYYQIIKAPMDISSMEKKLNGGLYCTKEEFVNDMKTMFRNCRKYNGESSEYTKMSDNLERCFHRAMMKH
T16 sequence (Q92830 728-832 limits assumed): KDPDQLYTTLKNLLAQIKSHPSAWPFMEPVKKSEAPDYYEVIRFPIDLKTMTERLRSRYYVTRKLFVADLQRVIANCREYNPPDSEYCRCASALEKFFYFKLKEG
T21 sequence (Q9UPN9 whole entry): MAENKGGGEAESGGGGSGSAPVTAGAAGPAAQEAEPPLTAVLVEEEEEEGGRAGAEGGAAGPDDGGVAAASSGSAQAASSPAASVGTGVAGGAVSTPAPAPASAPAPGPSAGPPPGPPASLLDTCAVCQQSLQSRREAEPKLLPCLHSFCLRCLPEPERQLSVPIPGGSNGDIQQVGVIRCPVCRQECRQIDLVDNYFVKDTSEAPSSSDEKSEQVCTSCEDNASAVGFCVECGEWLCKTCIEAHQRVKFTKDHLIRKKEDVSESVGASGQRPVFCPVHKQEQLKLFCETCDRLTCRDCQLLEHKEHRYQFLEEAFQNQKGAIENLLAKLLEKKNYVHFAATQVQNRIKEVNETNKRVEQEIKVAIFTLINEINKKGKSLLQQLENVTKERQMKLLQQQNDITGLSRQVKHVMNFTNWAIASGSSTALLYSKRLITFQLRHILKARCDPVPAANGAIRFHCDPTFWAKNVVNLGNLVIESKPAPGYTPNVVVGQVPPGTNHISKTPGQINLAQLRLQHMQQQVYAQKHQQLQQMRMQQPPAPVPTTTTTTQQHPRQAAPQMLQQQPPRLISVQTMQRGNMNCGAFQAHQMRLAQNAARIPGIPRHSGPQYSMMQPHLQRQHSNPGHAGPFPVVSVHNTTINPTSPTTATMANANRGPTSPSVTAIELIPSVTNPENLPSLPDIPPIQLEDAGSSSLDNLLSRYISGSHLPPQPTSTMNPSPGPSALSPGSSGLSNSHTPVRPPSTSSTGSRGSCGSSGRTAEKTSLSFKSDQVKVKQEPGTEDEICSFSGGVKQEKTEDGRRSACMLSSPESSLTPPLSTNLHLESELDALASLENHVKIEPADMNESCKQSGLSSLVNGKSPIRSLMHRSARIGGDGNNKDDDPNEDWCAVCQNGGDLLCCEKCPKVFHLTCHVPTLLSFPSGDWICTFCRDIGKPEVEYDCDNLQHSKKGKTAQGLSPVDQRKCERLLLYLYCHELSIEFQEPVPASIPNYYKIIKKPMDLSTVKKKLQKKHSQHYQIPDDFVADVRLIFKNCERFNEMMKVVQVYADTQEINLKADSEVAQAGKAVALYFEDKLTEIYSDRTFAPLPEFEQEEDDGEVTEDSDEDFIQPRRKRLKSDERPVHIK
T1 sequence (P25440 344-453 limits assumed): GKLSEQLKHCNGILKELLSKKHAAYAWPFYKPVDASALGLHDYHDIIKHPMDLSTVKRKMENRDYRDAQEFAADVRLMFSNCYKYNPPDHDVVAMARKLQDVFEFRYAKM
T10 sequence (Q9ULI0 951-1066 limits assumed): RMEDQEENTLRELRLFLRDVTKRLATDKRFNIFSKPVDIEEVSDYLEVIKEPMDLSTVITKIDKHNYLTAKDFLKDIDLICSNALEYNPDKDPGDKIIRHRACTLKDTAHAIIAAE
T14 sequence (Q9ULD4 589-693 limits assumed): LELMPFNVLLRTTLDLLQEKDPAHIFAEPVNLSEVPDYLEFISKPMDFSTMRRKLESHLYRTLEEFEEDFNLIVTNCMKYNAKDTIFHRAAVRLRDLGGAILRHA
T9 sequence (Q6PL18 980-1092 limits assumed): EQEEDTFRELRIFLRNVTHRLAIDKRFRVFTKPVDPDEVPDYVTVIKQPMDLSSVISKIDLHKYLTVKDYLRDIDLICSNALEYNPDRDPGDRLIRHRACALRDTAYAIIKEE
T11 sequence (Q9UIF9 1793-1897 limits assumed): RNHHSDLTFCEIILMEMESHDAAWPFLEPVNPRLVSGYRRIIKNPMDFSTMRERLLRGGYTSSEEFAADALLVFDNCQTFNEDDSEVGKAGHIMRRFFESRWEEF

Kd (BRD2(2)): 2.1 µM
Kd (BRD4(1)): 0.25 µM
Kd [1]: 0.44 µM
Kd (BRD8(2)): > 10 µM
Kd (BRDT(1, 2)): 2.4 µM
Kd (CECR2): > 10 µM
Kd (TRIM24(Bromo.)): 0.68 µM
Kd (TRIM24(PHD, Bromo.)): 1.9 µM
Kd (ATAD2A): > 10 µM
Kd (ATAD2B): > 10 µM
Kd (BAZ2A): > 10 µM
Kd (BAZ2B): > 10 µM
Kd (BRD1): > 10 µM
Kd (BRPF3): > 10 µM
Kd (FALZ): 5.5 µM
Kd (GCN5L2): > 10 µM
Kd (PBRM1(2)): > 10 µM
Kd (PBRM1(5)): 3.1 µM
Kd (SMARCA2): > 10 µM
Kd (SMARCA4): > 10 µM
Kd (TRIM33(PHD, Bromo.)): > 10 µM
SMILES: CO[C@H]1CC[C@H](n2c([C@@H]3CCCC(=O)N3c3ccc(F)c(F)c3)nc3cc(-c4c(C)noc4C)ccc32)CC1 [CCS1477]
Effect on cell proliferation as single agent (HCC827 cells; absence of EGFR inhibitor (FIG. 3 left)): do not affect cell proliferation
Anti-proliferative activity / re-growth in presence of Gefitinib (HCC827 cells; in presence of 300 nM Gefitinib (FIG. 3)): potentiate the effect of the EGFR inhibitor
